Assay results as given in US20200010910A1, “Cytotoxic Chemotherapy-Based Predictive Assays for Acute Myeloid Leukemia” (The Regents of The University of California, priority 2017, published 2020).

Tests used:
[1] = test system: HT1197; assay: MTT assay IC50, bladder cancer cell line; assay type: cell-based
Description: (§1) If these diadducts are the predominant DNA lesion responsible for cell death, then the IC50 of the two drugs should be linearly related. Thus, we measured the IC50 of the six NSCLC cell lines from Example 2 to both cisplatin and carboplatin to determine if the sensitivity of these six NSCLC cell lines to the two drugs are correlated. We observed a statistically significant linear correlation of the cytotoxicity of these two drugs in the 6 cell lines used in this study (R^2=0.72, p=0.033, FIG. 9A) and also to six additional ATCC bladder cancer cell lines. (R^2=0.72, p=0.033), FIG. 9B).

[2] = test system: RT4; assay: MTT assay IC50, bladder cancer cell line; assay type: cell-based
Description: as §1

[3] = test system: T24; assay: MTT assay IC50, bladder cancer cell line; assay type: cell-based
Description: as §1

[4] = test system: TCCSUP; assay: MTT assay IC50, bladder cancer cell line; assay type: cell-based
Description: as §1

[5] = test system: J82; assay: MTT assay IC50, bladder cancer cell line; assay type: cell-based
Description: as §1

[6] = test system: H23; assay: MTT assay IC50; assay type: cell-based, human
Procedure: (§2) Six non-small cell lung cancer (NSCLC) cell lines were treated in culture with [^14C]carboplatin. Carboplatin-DNA monoadduct levels over time were determined by measuring ^14C content in genomic DNA with accelerator mass spectrometry (AMS). Cellular sensitivity to carboplatin and cisplatin was analyzed by the MTT assay (Henderson et al., International Journal of Cancer 2011).
(§3) Human NSCLC cell lines H23, H460, H727, HCC827, H1975, and A549 were purchased from ATCC and were cultured with the recommended medium. The MTT assay was performed as previously reported to determine the drug concentration required to inhibit cell growth by 50% (IC50) of cisplatin and carboplatin. [^14C]Carboplatin (at 53 mCi/mmol) was mixed with unlabeled carboplatin to achieve the specific activities required for microdoses and therapeutic doses. Table 1 lists the six NSCLC cell lines and summarizes their IC50 characteristics, induced carboplatin-DNA monoadducts when treated with [^14C]carboplatin, and p and r^2 values for correlation analysis to the IC50 concentrations.

[7] = test system: H727; assay: MTT assay IC50; assay type: cell-based, human
Procedure: as §2, §3

[8] = test system: H460; assay: MTT assay IC50; assay type: cell-based, human
Procedure: as §2, §3

[9] = test system: H1975; assay: MTT assay IC50; assay type: cell-based, human
Procedure: as §2, §3

[10] = test system: A549; assay: MTT assay IC50; assay type: cell-based, human
Procedure: as §2, §3

[11] = test system: HCC827; assay: MTT assay IC50; assay type: cell-based, human
Procedure: as §2, §3

SMILES: N.N.O=C([O-])C1(C(=O)[O-])CCC1.[Pt+2] [carboplatin]
- IC50 [1]: 84.5 ± 24.6 µM
- IC50 [2]: 56.9 ± 11.2 µM
- IC50 [3]: 42.5 ± 6.99 µM
- IC50 [4]: 91.5 ± 6.81 µM
- IC50 [5]: 168 ± 19.9 µM
- IC50 [6]: 19.4 ± 8.65 µM
- IC50 [7]: 53.5 ± 3.65 µM
- IC50 [8]: 22 ± 5.23 µM
- IC50 [9]: 88.5 ± 30.8 µM
- IC50 [10]: 196 µM
- IC50 [11]: 86.2 ± 10.9 µM
